Starred links: 1 amine or outer side, 2 acyl side, 3 side chain; linkers in the order of their positions; H or OH if unused. Non-standard residues stand in square brackets, D forms with d. Residues, ends and D or L forms follow the SMILES beside them. Phe(4-(5-CO2H-2-pyrimidyl)) = N[C@@H](Cc1ccc(-c2ncc(C(=O)O)cn2)cc1)C(=O)O; Phe(4-(4-Ac-piperazinyl)) = CC(=O)N1CCN(c2ccc(C[C@H](N)C(=O)O)cc2)CC1; Trp(4-Cl)(βS-Me) = C[C@@H](c1c[nH]c2cccc(Cl)c12)[C@H](N)C(=O)O; dPro(4R-(4-pyridylmethyl)) = O=C(O)[C@H]1C[C@@H](Cc2ccncc2)CN1; Trp(βS-Me,4-F) = C[C@@H](c1c[nH]c2cccc(F)c12)[C@H](N)C(=O)O; Bip(4'-COOH) = N[C@@H](Cc1ccc(-c2ccc(C(=O)O)cc2)cc1)C(=O)O; Ala(1-bicyclo(1.1.1)pentyl) = N[C@@H](CC12CC(C1)C2)C(=O)O; dPro(3S-(4-F-Bn)) = O=C(O)[C@@H]1NCC[C@@H]1Cc1ccc(F)cc1; Phe(2-Cl,4-COOH) = N[C@@H](Cc1ccc(C(=O)O)cc1Cl)C(=O)O; 1Nal(3S-Me) = C[C@@H](c1cccc2ccccc12)[C@H](N)C(=O)O; X13 = O=C(O)c1ccc(C[C@H](N[*:1])C(=O)[*:2])cc1Cl; Ala(pyrimidin-5-yl) = N[C@@H](Cc1cncnc1)C(=O)O; Phe(4-COOH) = N[C@@H](Cc1ccc(C(=O)O)cc1)C(=O)O; Pro(cis-4-F) = O=C(O)[C@@H]1C[C@H](F)CN1; Ala(4-THP) = N[C@@H](CC1CCOCC1)C(=O)O; AEF = NCCOc1ccc(C[C@H](N)C(=O)O)cc1; d(αMeD) = C[C@@](N)(CC(=O)O)C(=O)O; 4Pal = N[C@@H](Cc1ccncc1)C(=O)O; aThr = C[C@H](O)[C@H](N)C(=O)O; d(αMeS) = C[C@@](N)(CO)C(=O)O; Dab = NCC[C@H](N)C(=O)O; Aib = CC(C)(N)C(=O)O

The target in this test is T1, IL-1β (Homo sapiens, UniProt P01584).
T1 construct: purchased BioLegend 579404
T1 sequence (P01584 117-269): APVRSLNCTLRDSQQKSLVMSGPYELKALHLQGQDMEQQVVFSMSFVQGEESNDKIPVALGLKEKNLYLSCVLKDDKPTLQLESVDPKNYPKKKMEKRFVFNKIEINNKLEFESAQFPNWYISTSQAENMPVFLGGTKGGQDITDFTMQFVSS
The experiment in a line: IL-6 assay in MRC5 cells: inhibition of IL-1β induced IL-6 secretion (AlphaLISA). It counts as cell-based. To be noted: inhibition of IL-1β induced IL-6 secretion in MRC5 cells; read-out: MRC5 IC50. The gist of the method: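 Compound was pre-incubated 1 h at ambient temperature with recombinant human IL-1β at 2λ EC80 before adding human lung fibroblast MRC5 cells (3000/well) in EMEM with 0.025% BSA. After overnight culture at 37 °C, 5% CO2, secreted IL-6 in conditioned medium was measured by AlphaLISA; IC50 from 4-parameter logistic fits.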
Turning to `C[C@H](O)[C@@H]1NC(=O)[C@@](C)(CC(=O)O)NC(=O)[C@H](Cc2c[nH]c3ccccc23)NC(=O)[C@H](CO)NC(=O)C(C)(C)NC(=O)[C@H]([C@@H](C)c2c[nH]c3cccc(F)c23)NC(=O)[C@@H]2C[C@H](F)CN2C(=O)CNC(=O)[C@H](Cc2ccc(C(=O)O)cc2)NC(=O)[C@H](Cc2ccncc2)NC(=O)[C@H](Cc2ccc(-c3ccc(C(=O)O)cc3)cc2)NC(=O)[C@H]2C[C@@H](Cc3ccncc3)CN2C(=O)CNC(=O)[C@H](CCN)NC(=O)[C@H](CCC(N)=O)NC1=O` [Example 359] (cyclo([Bip(4'-COOH)][4Pal][Phe(4-COOH)]G[Pro(cis-4-F)][Trp(βS-Me,4-F)][Aib]SW[d(αMeD)][aThr]Q[Dab]G[dPro(4R-(4-pyridylmethyl))])), the IC50 stood at 0.011 nM.

Regarding `C[C@@H](c1cccc2ccccc12)[C@@H]1NC(=O)[C@@H]2C[C@H](F)CN2C(=O)CNC(=O)[C@H](Cc2ccc(C(=O)O)cc2Cl)NC(=O)[C@H](Cc2ccncc2)NC(=O)[C@H](Cc2ccc(-c3ncc(C(=O)O)cn3)cc2)NC(=O)[C@H]2C[C@@H](Cc3ccncc3)CN2C(=O)CNC(=O)[C@H](CCN)NC(=O)[C@H](CCC(N)=O)NC(=O)[C@H](CC2CCOCC2)NC(=O)[C@@](C)(CC(=O)O)NC(=O)[C@H](Cc2c[nH]c3ccccc23)NC(=O)[C@H](CO)NC(=O)C(C)(C)NC1=O` [Example 360] (cyclo([Phe(4-(5-CO2H-2-pyrimidyl))][4Pal][Phe(2-Cl,4-COOH)]G[Pro(cis-4-F)][1Nal(3S-Me)][Aib]SW[d(αMeD)][Ala(4-THP)]Q[Dab]G[dPro(4R-(4-pyridylmethyl))])), the IC50 worked out at 0.019 nM.

Regarding `C[C@@H](c1c[nH]c2cccc(F)c12)[C@@H]1NC(=O)[C@@H]2C[C@H](F)CN2C(=O)CNC(=O)[C@H](Cc2ccc(C(=O)O)c(Cl)c2)NC(=O)[C@H](Cc2ccncc2)NC(=O)[C@H](Cc2ccc(-c3ncc(C(=O)O)cn3)cc2)NC(=O)[C@H]2C[C@@H](Cc3ccncc3)CN2C(=O)CNC(=O)[C@H](CCN)NC(=O)[C@H](CCC(N)=O)NC(=O)[C@H](CC2CCOCC2)NC(=O)[C@@](C)(CC(=O)O)NC(=O)[C@H](Cc2c[nH]c3ccccc23)NC(=O)[C@H](CO)NC(=O)C(C)(C)NC1=O` [Example 361] (cyclo([Phe(4-(5-CO2H-2-pyrimidyl))][4Pal][X13]G[Pro(cis-4-F)][Trp(βS-Me,4-F)][Aib]SW[d(αMeD)][Ala(4-THP)]Q[Dab]G[dPro(4R-(4-pyridylmethyl))])), the concentration for half-maximal inhibition (IC50) was 0.022 nM.

With `CC(=O)NCCOc1ccc(C[C@@H]2NC(=O)[C@H]3C[C@@H](Cc4ccncc4)CN3C(=O)CNC(=O)[C@H](CCN)NC(=O)[C@H](CCC(N)=O)NC(=O)[C@H](CC3CCOCC3)NC(=O)[C@@](C)(CC(=O)O)NC(=O)[C@H](Cc3c[nH]c4ccccc34)NC(=O)[C@H](CO)NC(=O)C(C)(C)NC(=O)[C@H]([C@@H](C)c3c[nH]c4cccc(Cl)c34)NC(=O)[C@@H]3C[C@H](F)CN3C(=O)CNC(=O)[C@H](Cc3ccc(C(=O)O)cc3)NC(=O)[C@H](Cc3ccncc3)NC2=O)cc1` [Example 362] (cyclo([AEF](Ac)[4Pal][Phe(4-COOH)]G[Pro(cis-4-F)][Trp(4-Cl)(βS-Me)][Aib]SW[d(αMeD)][Ala(4-THP)]Q[Dab]G[dPro(4R-(4-pyridylmethyl))])), the IC50 turned out to be 0.023 nM.

On to `CC(=O)NCCOc1ccc(C[C@@H]2NC(=O)[C@H]3C[C@@H](Cc4ccncc4)CN3C(=O)CNC(=O)[C@H](CCN)NC(=O)[C@H](CCC(N)=O)NC(=O)[C@H](CC3CCOCC3)NC(=O)[C@@](C)(CC(=O)O)NC(=O)[C@H](Cc3c[nH]c4ccccc34)NC(=O)[C@H](CO)NC(=O)C(C)(C)NC(=O)[C@H]([C@@H](C)c3cccc4ccccc34)NC(=O)[C@@H]3C[C@H](F)CN3C(=O)CNC(=O)[C@H](Cc3ccc(C(=O)O)cc3Cl)NC(=O)[C@H](Cc3ccncc3)NC2=O)cc1` [Example 363] (cyclo([AEF](Ac)[4Pal][Phe(2-Cl,4-COOH)]G[Pro(cis-4-F)][1Nal(3S-Me)][Aib]SW[d(αMeD)][Ala(4-THP)]Q[Dab]G[dPro(4R-(4-pyridylmethyl))])), for which the half-maximal inhibitory concentration (IC50) is 0.021 nM.

Turning to `C[C@@H](c1c[nH]c2cccc(F)c12)[C@@H]1NC(=O)[C@@H]2C[C@H](F)CN2C(=O)CNC(=O)[C@H](Cc2ccc(C(=O)O)cc2)NC(=O)[C@H](Cc2ccncc2)NC(=O)[C@H](Cc2ccc(-c3ccc(C(=O)O)cc3)cc2)NC(=O)[C@H]2C[C@@H](Cc3ccncc3)CN2C(=O)CNC(=O)[C@H](CCN)NC(=O)[C@H](CCC(N)=O)NC(=O)[C@H](CC2CCOCC2)NC(=O)[C@@](C)(CO)NC(=O)[C@H](Cc2c[nH]c3ccccc23)NC(=O)[C@H](CO)NC(=O)C(C)(C)NC1=O` [Example 364] (cyclo([Bip(4'-COOH)][4Pal][Phe(4-COOH)]G[Pro(cis-4-F)][Trp(βS-Me,4-F)][Aib]SW[d(αMeS)][Ala(4-THP)]Q[Dab]G[dPro(4R-(4-pyridylmethyl))])), the IC50 turned out to be 0.015 nM.

`CC(=O)N1CCN(c2ccc(C[C@@H]3NC(=O)[C@H]4C[C@@H](Cc5ccncc5)CN4C(=O)CNC(=O)[C@H](CCN)NC(=O)[C@H](CCC(N)=O)NC(=O)[C@H](Cc4cncnc4)NC(=O)C(C)(C)NC(=O)[C@H](Cc4c[nH]c5ccccc45)NC(=O)[C@H](CO)NC(=O)C(C)(C)NC(=O)[C@H]([C@@H](C)c4c[nH]c5cccc(F)c45)NC(=O)[C@@H]4C[C@H](F)CN4C(=O)CNC(=O)[C@H](Cc4ccc(C(=O)O)cc4Cl)NC(=O)[C@H](Cc4ccncc4)NC3=O)cc2)CC1` [Example 365] (cyclo([Phe(4-(4-Ac-piperazinyl))][4Pal][Phe(2-Cl,4-COOH)]G[Pro(cis-4-F)][Trp(βS-Me,4-F)][Aib]SW[Aib][Ala(pyrimidin-5-yl)]Q[Dab]G[dPro(4R-(4-pyridylmethyl))])): the IC50 was 0.023 nM.

`CC(=O)N1CCN(c2ccc(C[C@@H]3NC(=O)[C@H]4C[C@@H](Cc5ccncc5)CN4C(=O)CNC(=O)[C@H](CCN)NC(=O)[C@H](CCC(N)=O)NC(=O)[C@H](Cc4cncnc4)NC(=O)C(C)(C)NC(=O)[C@H](Cc4c[nH]c5ccccc45)NC(=O)[C@H](CO)NC(=O)C(C)(C)NC(=O)[C@H]([C@@H](C)c4c[nH]c5cccc(F)c45)NC(=O)[C@@H]4C[C@H](F)CN4C(=O)CNC(=O)[C@H](Cc4ccc(C(=O)O)cc4)NC(=O)[C@H](Cc4ccncc4)NC3=O)cc2)CC1` [Example 366] (cyclo([Phe(4-(4-Ac-piperazinyl))][4Pal][Phe(4-COOH)]G[Pro(cis-4-F)][Trp(βS-Me,4-F)][Aib]SW[Aib][Ala(pyrimidin-5-yl)]Q[Dab]G[dPro(4R-(4-pyridylmethyl))])): the IC50 is 0.021 nM.

Turning to `CC(=O)NCCOc1ccc(C[C@@H]2NC(=O)[C@H]3C[C@@H](Cc4ccncc4)CN3C(=O)CNC(=O)[C@H](CCN)NC(=O)[C@H](CCC(N)=O)NC(=O)[C@H](Cc3cncnc3)NC(=O)C(C)(C)NC(=O)[C@H](Cc3c[nH]c4ccccc34)NC(=O)[C@H](CO)NC(=O)C(C)(C)NC(=O)[C@H]([C@@H](C)c3c[nH]c4cccc(F)c34)NC(=O)[C@@H]3C[C@H](F)CN3C(=O)CNC(=O)[C@H](Cc3ccc(C(=O)O)cc3Cl)NC(=O)[C@H](Cc3ccncc3)NC2=O)cc1` [Example 367] (cyclo([AEF](Ac)[4Pal][Phe(2-Cl,4-COOH)]G[Pro(cis-4-F)][Trp(βS-Me,4-F)][Aib]SW[Aib][Ala(pyrimidin-5-yl)]Q[Dab]G[dPro(4R-(4-pyridylmethyl))])), the IC50 turned out to be 0.017 nM.

Take `CC(=O)NCCOc1ccc(C[C@@H]2NC(=O)[C@H]3C[C@@H](Cc4ccncc4)CN3C(=O)CNC(=O)[C@H](CCN)NC(=O)[C@H](CCC(N)=O)NC(=O)[C@H](Cc3cncnc3)NC(=O)C(C)(C)NC(=O)[C@H](Cc3c[nH]c4ccccc34)NC(=O)[C@H](CO)NC(=O)C(C)(C)NC(=O)[C@H]([C@@H](C)c3c[nH]c4cccc(F)c34)NC(=O)[C@@H]3C[C@H](F)CN3C(=O)CNC(=O)[C@H](Cc3ccc(C(=O)O)cc3)NC(=O)[C@H](Cc3ccncc3)NC2=O)cc1` [Example 368] (cyclo([AEF](Ac)[4Pal][Phe(4-COOH)]G[Pro(cis-4-F)][Trp(βS-Me,4-F)][Aib]SW[Aib][Ala(pyrimidin-5-yl)]Q[Dab]G[dPro(4R-(4-pyridylmethyl))])): the IC50 stood at 0.022 nM.

Consider `CC(=O)NCCOc1ccc(C[C@@H]2NC(=O)[C@H]3[C@@H](Cc4ccc(F)cc4)CCN3C(=O)CNC(=O)[C@H](CCN)NC(=O)[C@H](CCC(N)=O)NC(=O)[C@H](Cc3cncnc3)NC(=O)[C@@](C)(CC(=O)O)NC(=O)[C@H](Cc3c[nH]c4ccccc34)NC(=O)[C@H](CO)NC(=O)C(C)(C)NC(=O)[C@H]([C@@H](C)c3c[nH]c4cccc(F)c34)NC(=O)[C@@H]3C[C@H](F)CN3C(=O)CNC(=O)[C@H](Cc3ccc(C(=O)O)cc3)NC(=O)[C@H](Cc3ccncc3)NC2=O)cc1` [Example 369] (cyclo([AEF](Ac)[4Pal][Phe(4-COOH)]G[Pro(cis-4-F)][Trp(βS-Me,4-F)][Aib]SW[d(αMeD)][Ala(pyrimidin-5-yl)]Q[Dab]G[dPro(3S-(4-F-Bn))])), for which the IC50 is 0.021 nM.

Turning to `CC(=O)NCCOc1ccc(C[C@@H]2NC(=O)[C@H]3[C@@H](Cc4ccc(F)cc4)CCN3C(=O)CNC(=O)[C@H](CCN)NC(=O)[C@H](CCC(N)=O)NC(=O)[C@H](CC3CCOCC3)NC(=O)[C@@](C)(CC(=O)O)NC(=O)[C@H](Cc3c[nH]c4ccccc34)NC(=O)[C@H](CO)NC(=O)C(C)(C)NC(=O)[C@H]([C@@H](C)c3c[nH]c4cccc(F)c34)NC(=O)[C@@H]3C[C@H](F)CN3C(=O)CNC(=O)[C@H](Cc3ccc(C(=O)O)cc3)NC(=O)[C@H](CC34CC(C3)C4)NC2=O)cc1` [Example 370] (cyclo([AEF](Ac)[Ala(1-bicyclo(1.1.1)pentyl)][Phe(4-COOH)]G[Pro(cis-4-F)][Trp(βS-Me,4-F)][Aib]SW[d(αMeD)][Ala(4-THP)]Q[Dab]G[dPro(3S-(4-F-Bn))])), the half-maximal inhibitory concentration (IC50) stood at 0.015 nM.

What is called IC50 is the concentration needed to halve the response being measured.

The values above are taken from patent US20260242419A1, “A CYCLIC PEPTIDE FOR TRAPPING INTERLEUKIN-1 BETA” (Merck Sharp & Dohme LLC, priority 2023, published 2026).
